Assay [1] has as its target Human LATS2 catalytic domain (Homo sapiens (Human), UniProt Q9NRM7). As to the kind of experiment: LATS2 High ATP HTRF Assay. Particulars: no asterisk: LATS2 High ATP HTRF Assay, 5000 μM ATP, 0.05 nM LATS2. The class given is biochemical. The method, boiled down: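 Phosphorylation of 0.5 μM STK S1 peptide at high ATP (5000 μM), 2 h at room temperature, by 0.05 nM LATS2 kinase domain/Mob1b complex after 10 min compound pre-incubation. Ki derived from HTRF-based IC50 (4-parameter logistic) by Cheng-Prusoff, ATP Km 105 μM.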
On the technique in general: TR-FRET usually uses a lanthanide donor and a delayed reading to cut background.

The subject of assay [2] is TAZ nuclear translocation in SW1990 cells. In words: TAZ Nuclear Translocation Assay. The class given is cell-based. Particulars: Homo sapiens, 4 hours. The procedure: The SW1990 cells (ATCC, CRL2172) were seeded at 5000 cells/well by adding 30 μL/well of cells in RPMI1640, 10% FBS, 2 mM glutamine culture media to a 384-well plate (Greiner 781091). The cells were incubated overnight at 37° C. Next day, test compounds were directly added to the cells using the Echo Liquid Handler (Labcyte), incubate at 37° C. for 4 hours. The cells were fixed with 4% paraformaldehyde and incubate for 20 minutes at room temperature. After washing three times with 100 μL PBS, 0.5% Triton X-100 was added to permeabilize the cells, incubate at room temperature for 5 minutes, following by washing the cells three times with PBS. 3% BSA was added to the cells, incubate for one hour at room temperature, following by washing three times with PBS. 50 μL of 1:750 diluted rabbit Anti-TAZ (Cell signaling D316D) in 3% BSA was added to the cells, incubate at 4° C. overnight. Next day, after washing the cells three times with PBS, 50 μL of 1:1250 diluted donkey anti-Rabbit, Alexa Fluor 488 (Invitrogen A21206) and 1:6250 diluted Hoechst 33342 (Molecular Probes H-21492) in 3% BSA was added to the cells, incubate at room temperature for one hour. The cells were washed three times with PBS, then image with the CellInsight CX7 High-Content Imager. The ratio of nuclear mean fluorescence intensity and cytoplasmic ring region mean fluorescence intensity was calculated. The % inhibition was normalized using DMSO as 0% inhibition and an inhibitor control as 100% inhibition. The EC50 values were calculated by fitting the % inhibition with a nonlinear four-parameter logistical equation.

Each structure is given as a SMILES string. Bounds are passed on as bounds.

Chain of Human LATS2 catalytic domain (Q9NRM7 553-1088): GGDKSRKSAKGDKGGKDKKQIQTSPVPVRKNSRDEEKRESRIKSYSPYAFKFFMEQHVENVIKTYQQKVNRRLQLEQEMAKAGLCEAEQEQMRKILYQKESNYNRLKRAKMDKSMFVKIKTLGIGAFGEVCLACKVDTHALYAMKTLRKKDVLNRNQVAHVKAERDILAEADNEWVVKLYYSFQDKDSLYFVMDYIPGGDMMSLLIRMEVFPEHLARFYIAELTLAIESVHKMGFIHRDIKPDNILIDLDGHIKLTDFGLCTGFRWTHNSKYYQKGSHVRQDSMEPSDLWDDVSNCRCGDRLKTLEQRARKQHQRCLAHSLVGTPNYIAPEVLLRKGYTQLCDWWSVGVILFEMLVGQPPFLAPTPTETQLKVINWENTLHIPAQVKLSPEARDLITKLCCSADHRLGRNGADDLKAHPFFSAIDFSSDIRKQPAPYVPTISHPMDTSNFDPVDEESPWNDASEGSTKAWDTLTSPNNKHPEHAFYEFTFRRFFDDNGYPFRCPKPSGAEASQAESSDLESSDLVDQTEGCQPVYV
Chain of Human LATS2 catalytic domain (Q7L9L4 whole entry partner, the tested form may be a part): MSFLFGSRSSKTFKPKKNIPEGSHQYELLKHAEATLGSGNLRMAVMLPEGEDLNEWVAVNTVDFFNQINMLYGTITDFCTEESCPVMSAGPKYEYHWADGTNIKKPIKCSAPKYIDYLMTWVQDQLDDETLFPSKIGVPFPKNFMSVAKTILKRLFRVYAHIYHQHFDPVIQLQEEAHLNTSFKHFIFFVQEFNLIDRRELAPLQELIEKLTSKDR

`CC1CC2(CCN(c3nc(-c4ccncc4)nc4cnccc34)CC2)CN1C` (stereo not shown) [Compound 168, 4-(2,3-dimethyl-2,8-diazaspiro[4.5]decan-8-yl)-2-(pyridin-4-yl)pyrido[3,4-d]pyrimidine] came in with a Ki in assay [1] of 1.62 nM. The EC50 in assay [2] stood at 830 nM.

For `COC(=O)C1CC2(CCN(c3nc(-c4ccncc4)nc4cnccc34)CC2)CN1` (stereo not shown) [Compound 171, methyl 8-(2-(pyridin-4-yl)pyrido[3,4-d]pyrimidin-4-yl)-2,8-diazaspiro[4.5]decane-3-carboxylate], the Ki in assay [1] is 1.95 nM. Further, in assay [2], the concentration for a half-maximal effect (EC50) was 8400 nM.

For the compound `CNC(=O)C1CC2(CCN(c3nc(-c4ccncc4)nc4cnccc34)CC2)CN1` (stereo not shown) [Compound 172, N-methyl-8-(2-(pyridin-4-yl)pyrido[3,4-d]pyrimidin-4-yl)-2,8-diazaspiro[4.5]decane-3-carboxamide], the Ki in assay [1] is 0.64 nM. The compound also had a 50% effective concentration (EC50) in assay [2] of 6500 nM.

In turn, `Fc1cnccc1-c1nc(N2CCC3(CCNC3)CC2)c2ccncc2n1` [Compound 182, 2-(3-fluoropyridin-4-yl)-4-(2,8-diazaspiro[4.5]decan-8-yl)pyrido[3,4-d]pyrimidine] yielded a Ki in assay [1] of 2.26 nM. Moreover, it took 2700 nM to reach a half-maximal effect in assay [2] (EC50).

`Cc1[nH]ncc1-c1nc(N2CCC3(CCNC3)CC2)c2c(F)cncc2n1` [Compound 186, 5-fluoro-2-(5-methyl-1H-pyrazol-4-yl)-4-(2,8-diazaspiro[4.5]decan-8-yl)pyrido[3,4-d]pyrimidine]: affinity in assay [1] was put at a Ki of 2.26 nM. In addition, the EC50 in assay [2] is over 10000 nM.

As for `OC1CNCC12CCN(c1nc(-c3ccncc3)nc3cnccc13)CC2` (stereo not shown) [Compound 187, 8-(2-(pyridin-4-yl)pyrido[3,4-d]pyrimidin-4-yl)-2,8-diazaspiro[4.5]decan-4-ol], the affinity in assay [1], expressed as Ki, was 1.44 nM. In assay [2], this compound gave an EC50 of over 10000 nM.

In assay [1], `CN1CCC2(CCN(c3nc(-c4ccncc4)nc4cnc(Cn5cc(Cl)cn5)cc34)CC2)C1` [Compound 189, 6-((4-chloro-1H-pyrazol-1-yl)methyl)-4-(2-methyl-2,8-diazaspiro[4.5]decan-8-yl)-2-(pyridin-4-yl)pyrido[3,4-d]pyrimidine] showed a Ki of 0.76 nM. For the same compound, a half-maximal response in assay [2] (EC50) required 540 nM.

With `Cc1n[nH]cc1-c1nc(N2CCC3(CCN(C)C3)CC2)c2cc(Cn3cc(Cl)cn3)ncc2n1` [Compound 190, 6-((4-chloro-1H-pyrazol-1-yl)methyl)-2-(3-methyl-1H-pyrazol-4-yl)-4-(2-methyl-2,8-diazaspiro[4.5]decan-8-yl)pyrido[3,4-d]pyrimidine], in assay [1], the inhibitory constant (Ki) came out at 0.026 nM. In addition, the EC50 in assay [2] came to 110 nM.

The compound `OCC1CC2(CCN(c3nc(-c4ccncc4)nc4cnccc34)CC2)CN1` (stereo not shown) [Compound 196, (8-(2-(pyridin-4-yl)pyrido[3,4-d]pyrimidin-4-yl)-2,8-diazaspiro[4.5]decan-3-yl)methanol] came in with a Ki in assay [1] of 0.057 nM. In assay [2], this compound displayed an EC50 of 970 nM.

Compound `Cc1n[nH]c(C)c1-c1nc(N2CCC3(CCNC3)CC2)c2ccncc2n1` [Compound 241, 2-(3,5-Dimethyl-1H-pyrazol-4-yl)-4-(2,8-diazaspiro[4.5]decan-8-yl)pyrido[3,4-d]pyrimidine] displayed a Ki in assay [1] of 1.4 nM. In addition, the EC50 in assay [2] was over 10000 nM.

`COCc1nccc2c(N3CCC4(CCNC4)CC3)nc(-c3ccncc3)nc12` [Compound 242, 8-(methoxymethyl)-2-(pyridin-4-yl)-4-(2,8-diazaspiro[4.5]decan-8-yl)pyrido[3,4-d]pyrimidine] displayed a Ki in assay [1] of 0.76 nM. Moreover, the EC50 in assay [2] was found to be 2800 nM.

For the compound `COCc1cncc2nc(-c3ccncc3)nc(N3CCC4(CCNC4)CC3)c12` [Compound 243, 5-(Methoxymethyl)-2-(pyridin-4-yl)-4-(2,8-diazaspiro[4.5]decan-8-yl)pyrido[3,4-d]pyrimidine], in assay [1], the inhibitory constant (Ki) was 1.9 nM. The response in assay [2] was half-maximal at 3900 nM (EC50).

In assay [1], `CC(C)(O)C#Cc1nccc2c(N3CCC4(CCNC4)CC3)nc(-c3ccncc3)nc12` [Compound 245, 2-methyl-4-(2-(pyridin-4-yl)-4-(2,8-diazaspiro[4.5]decan-8-yl)pyrido[3,4-d]pyrimidin-8-yl)but-3-yn-2-ol] showed a Ki of 0.039 nM. The compound further came in with an EC50 in assay [2] of 4800 nM.

For the compound `FC(F)(F)c1cncc2nc(-c3ccncc3)nc(N3CCC4(CCNC4)CC3)c12` [Compound 246, 2-(pyridin-4-yl)-4-(2,8-diazaspiro[4.5]decan-8-yl)-5-(trifluoromethyl)pyrido[3,4-d]pyrimidine], the inhibition constant Ki in assay [1] amounted to 3.5 nM. Moreover, it took 3100 nM to reach a half-maximal effect in assay [2] (EC50).

As for `CN1CCC2(CCN(c3nc(-c4ccncc4)nc4c(C#CC(C)(C)O)nccc34)CC2)C1` [Compound 247, 2-methyl-4-(4-(2-methyl-2,8-diazaspiro[4.5]decan-8-yl)-2-(pyridin-4-yl)pyrido[3,4-d]pyrimidin-8-yl)but-3-yn-2-ol], the Ki in assay [1] amounted to 0.039 nM. Further, in assay [2], the 50% effective concentration (EC50) amounted to 310 nM.

`CC(C)Oc1cncc2nc(-c3ccncc3)nc(N3CCC4(CCNC4)CC3)c12` [Compound 248, 5-isopropoxy-2-(pyridin-4-yl)-4-(2,8-diazaspiro[4.5]decan-8-yl)pyrido[3,4-d]pyrimidine]: affinity in assay [1] was put at a Ki of 0.02 nM. In assay [2], this compound yielded an EC50 of 110 nM.

Take `Oc1cncc2nc(-c3ccncc3)nc(N3CCC4(CCNC4)CC3)c12` [Compound 249, 2-(Pyridin-4-yl)-4-(2,8-diazaspiro[4.5]decan-8-yl)pyrido[3,4-d]pyrimidin-5-ol]: in assay [1], the affinity corresponds to a Ki of 0.27 nM. This compound returned an EC50 in assay [2] of over 10000 nM.

In assay [1], `COc1cncc2nc(-c3ccncc3)nc(N3CCC4(CCN(CC(C)(C)O)C4)CC3)c12` [Compound 250, 1-(8-(5-methoxy-2-(pyridin-4-yl)pyrido[3,4-d]pyrimidin-4-yl)-2,8-diazaspiro[4.5]decan-2-yl)-2-methylpropan-2-ol] showed an inhibition constant (Ki) of 0.033 nM. This compound returned an EC50 in assay [2] of 100 nM.

Take `[O-][n+]1ccc(-c2nc(N3CCC4(CCNC4)CC3)c3ccncc3n2)cc1` [Compound 251, 4-(4-(2,8-diazaspiro[4.5]decan-8-yl)pyrido[3,4-d]pyrimidin-2-yl)pyridine 1-oxide]: the Ki in assay [1] stood at 3.5 nM. Moreover, the EC50 in assay [2] was over 10000 nM.

In assay [1], `COc1cncc2nc(-c3ccncc3)nc(N3CCC4(CCN(CC5(O)CCC5)C4)CC3)c12` [Compound 253, 1-((8-(5-methoxy-2-(pyridin-4-yl)pyrido[3,4-d]pyrimidin-4-yl)-2,8-diazaspiro[4.5]decan-2-yl)methyl)cyclobutan-1-ol] gave a Ki of 0.28 nM. In assay [2], this compound came in with a 50% effective concentration (EC50) of 120 nM.

For the compound `C=CCOc1cncc2nc(-c3ccncc3)nc(N3CCC4(CCNC4)CC3)c12` [Compound 254, 5-(allyloxy)-2-(pyridin-4-yl)-4-(2,8-diazaspiro[4.5]decan-8-yl)pyrido[3,4-d]pyrimidine], the Ki in assay [1] came to 0.018 nM. Besides, the EC50 in assay [2] worked out at 100 nM.

Consider `COc1cncc2nc(-c3ccncc3)nc(N3CCC4(CCN(CC5COC5)C4)CC3)c12` [Compound 255, 5-Methoxy-4-(2-(oxetan-3-ylmethyl)-2,8-diazaspiro[4.5]decan-8-yl)-2-(pyridin-4-yl)pyrido[3,4-d]pyrimidine], for which the affinity in assay [1] corresponds to a Ki of 0.034 nM. The compound further registered an EC50 in assay [2] of 140 nM.

In assay [1], `C#CCCN1CCC2(CCN(c3nc(-c4ccncc4)nc4cnccc34)CC2)C1` [Compound 256, 4-(2-(but-3-yn-1-yl)-2,8-diazaspiro[4.5]decan-8-yl)-2-(pyridin-4-yl)pyrido[3,4-d]pyrimidine] gave a Ki of 0.19 nM. This compound also came in with an EC50 in assay [2] of 470 nM.

As a reminder, the Ki is a measure of affinity in units of concentration, obtained from inhibition or displacement. Higher therefore signals lower affinity. One may read the EC50 as the concentration needed to bring the measured effect to its halfway point.
